The test system of assay [1] is MPTP-lesioned marmoset model of Parkinson's disease. Description: Parkinsonian disability score with L-DOPA, MPTP-lesioned marmoset (Example 1). It is filed as in vivo, marmosets (Callithrix jacchus). Conditions: for Disability scores: levetiracetam 13, 30 and 60 mg/kg + L-DOPA 12 mg/kg, p>0.05. The procedure: This study was designed to investigate whether levetiracetam has anti-dyskinetic activity in the 1-methyl-4-phenyl-1,2,3,6-tetrahydropyridine (MPTP)-lesioned marmoset model of Parkinson's disease. The effect of levetiracetam on L-3,4-dihydroxyphenylalanine (L-DOPA)-induced dyskinesias and alleviation of parkinsonism symptoms was investigated.
The study was performed on seven adult marmosets (Callithrix jacchus) bred in a closed colony. The marmosets were rendered parkinsonian by subcutaneous injection of 2 mg/kg MPTP for 5 consecutive days. The marmosets were allowed to recover for 18 weeks until their parkinsonism became stable. The degree of activity and disability before and after MPTP treatment was assessed using a combination of scales that measure locomotor activity, mobility, bradykinesia and posture. Animals were treated with L-DOPA (12.5 mg/kg b.i.d. for 6 weeks) to prime them to elicit dyskinesia.
All drugs were administered orally in a volume of 5 ml/kg via a syringe in the animal's home cage. The animals were immediately transferred to the experimental cage (60 cm×55 cm×75 cm, with the perch 25 cm from floor of cage) for behavioural assessment. Vehicle was apple juice in all cases.
2) Parkinsonian disability—non-parametric measures based on the following scales
a) Range of movement score: 0=no movement, 1=movement of head on the floor of the cage, 2=movement of limbs, but no locomotion, on the floor of the cage, 3=movement of head or trunk on wall of cage or perch, 4=movement of limbs, but no locomotion, on wall of cage or perch, 5=walking around floor of cage or eating from hopper on floor, 6=hopping on floor of cage, 7=climbing onto wall of cage or perch, 8=climbing up and down the walls of the cage or along perch, 9=running, jumping, climbing between cage walls/perch/roof, uses limbs through a wide range of motion and activity.
b) Bradykinesia score: 0=normal speed and initiation of movement, 1=mild slowing of movement, 2=moderate slowing, difficulty initiating and maintaining movement, marked freezing, 3=akinetic, unable to move, with prolonged freezing episodes
c) Postural abnormality score: 0=normal, upright, holds head up, normal balance, 1=abnormal, crouched, face down, may lose balance. […]
Behaviour was assessed for 6 hours post drug administration. Behavioural test 1, activity, was assessed every 5 minutes for 6 hours post drug administration. Behavioural tests 2 and 3, parkinsonian disability and dyskinesia, respectively, were assessed for 10 minutes every 30 minutes over the course of 6 hours, by post hoc analysis of video-recordings by an observer blinded to the treatment. […]

Assay [2] has the same test system. Description: Activity and on-time with Ropinirole, MPTP-lesioned marmoset (Example 3). It counts as in vivo, marmosets (Callithrix jacchus). Conditions: for "on-time" / Activity: P<0.01; for Enhancement of "on-time": six hour experiment. As to the method:
This study was designed to investigate whether Levetiracetam has a potential as an adjunctive anti-parkinsonian agent to dopamine replacement therapy in the 1-methyl-4-phenyl-1,2,3,6-tetrahydropyridine (MPTP)-lesioned marmoset model of Parkinson's disease. The effect of Levetiracetam on Ropinirole alleviation of parkinsonism symptoms was investigated. The study was performed on six adult marmosets (Callithrix jacchus; 4 female, 2 male). The marmosets were rendered parkinsonian by subcutaneous injection of 2 mg/kg MPTP for 5 consecutive days. The marmosets were allowed to recover for 18 weeks until their parkinsonism was stable. The degree of activity and disability before and after MPTP treatment were assessed using a combination of scales that measure locomotor activity, mobility, bradykinesia and posture. Animals were treated with L-DOPA 12 mg/kg b.i.d. for 6 weeks. After this time, animals were used for assessment of potential symptomatic antiparkinsonian therapy. All drugs were administered orally in a volume of 5 ml/kg via a syringe in the animal's home cage. The animals were immediately transferred to an experimental cage (60 cm×55 cm×75 cm, with the perch 25 cm from floor of cage) for behavioural assessment. Vehicle was apple juice in all cases. The doses were 3.75 mg/kg of Ropinirole in combination with Levetiracetam at 13, 30 and 60 mg/kg. Behaviour was assessed for 6 hours post drug administration. 1) Activity—a quantitative assessment using computer-based activity monitors was obtained every 5 minutes for the duration of the experiment. Behavioural test 1 (activity) was assessed every 5 minutes for 6 hours post drug administration. Behavioural tests 2 (parkinsonian disability) was assessed for 10 minutes every 30 minutes over the course of 6 hours, by post hoc analysis of video-recordings by an observer blinded to the treatment. The score given/achieved in each 10 minute time period was presented. Cumulated data for parkinsonian disability, range of movement, bradykinesia and postural abnormalities were analysed with a non-parametric repeated measures one-way ANOVA (Friedman's test) followed by Dunn's multiple comparison test (Graphpad Prism version 3).

Setting [3] is: Levetiracetam 13 mg/kg + Ropinirole 3.75 mg/kg.
Setting [4] is: Levetiracetam 30 mg/kg + Ropinirole 3.75 mg/kg.

Structures are written as SMILES.

Consider `CC[C@@H](C(N)=O)N1CCCC1=O` [levetiracetam, (S)-α-ethyl-2-oxo-1-pyrrolidineacetamide], for which the Disability scores result in assay [1] (any time-point after one hour post drug administration) is given as “no significant differences”. In addition, the Disability scores result in assay [1] (first hour post drug administration) is “no significant differences”. The “Reversal of parkinsonian symptoms at peak effect, compared with L-DOPA monotherapy” value in assay [1] (levetiracetam 13 to 60 mg/kg + L-DOPA 12 mg/kg) is on record as “same magnitude”. Moreover, in assay [2] (setting [3]), the “"on-time"” value is recorded as “significantly increased”, the Activity result was “significantly increased” and the “Enhancement of "on-time"” value is listed as “approximately 82%”. For the same compound, in assay [2] (setting [4]), the “"on-time"” value is recorded as “significantly increased”, the Activity entry is “significantly increased” and the “Enhancement of "on-time"” value is about 69%.

For the origin of these results see US20040242671A1, “Use of 2-oxo-1-pyrrolidine derivatives for the preparation of a drug” (priority 2001, published 2004).
